# Target: HLA-A2.1 (Homo sapiens, UniProt P04439, D140Y/D185E/D98H/E176V/E277Q/G131W/G231S/I119V/I121R/I166T/I218V/L300P/L318F/N151K/N90K/P208A/P217A/Q86G/Q94H/R138H/R169H/T345S)
# Assay: MHC stabilization
# Type: binding
# Details: T2 cell assay
row,Sequence,Binding to A2.1 (in words)
1,KLLPLPSAI [SIM2(25)],strongly bind
2,SLYDSCYQI [SIM2(199)],strongly bind

# — paper PMC5573151 (Clinical cancer research : an official journal of the …, 2009)
